# Test results published in patent US20050239738A1, “Genetic inhibition of epidermal growth factor receptor function and carcinoma cell radiosensitization” (priority 2000, published 2005).
# What was measured:
# Assay type in all cases: cell-based, human
# EGFR-CD533 expression = assay: Doxycycline induction of EGFR-CD533 mRNA and protein (RNase protection, Northern, 35S-Met labeling)
# Source text: The kinetics of EGFR-CD533 induction and its decay after Dox removal were monitored by metabolic labeling with ^35S-Met as described in the text.
# MAPK = MAPK immune complex kinase assay
# Procedure: (§1) Dox at 1 μg/ml was added 48 h prior to radiation exposure and cell harvesting with a medium change to RPMI/0.5% FBS with or without Dox for the final 24 h. This medium was replaced by RPMI/0.5% FBS 2 h prior to treatment.
# (§2) Immunoprecipitation and Western analysis. For immunochemical analyses, cells frozen at −20° C. were lysed in ice-cold lysis buffer, 25 mM β-glycerophosphate, pH 7.4, 25 mM Tris, pH 7.4, 10% (v/v) glycerol, 1.5 mM EGTA, 0.5 mM EDTA, 1% Triton X-100, 1 mM Na-orthovanadate, 1 mM Na-pyrophosphate, 10 μg/ml aprotinin, 10 μg/ml leupeptin, 1 μm benzamidine, 100 μg/ml PMSF. […] Lysates were incubated with Ab at 4° C. for 3 h, the agarose-Ab immunoprecipitates were washed twice in lysis buffer, once in lysis buffer containing 0.1% Triton X-100, and once in 1× kinase buffer, 25 mM β-glycerophosphate, pH 7.4, 15 mm MgCl2. For Western blot analyses, equal amounts of cellular protein were separated by SDS-PAGE, electroblotted to nitrocellulose, probed with specific Abs against c-Jun protein and c-Jun 0phosphorylated at Ser-63, followed by chemilumescence detection. Expression of Tam 67 in MDA-TR15-EGFR-CD533 cells infected with recombinant adenovirus was determined by Western analysis using a c-Jun Ab specific for the COOH-terminus.
# (§3) Immune complex kinase assays.
# (§4) Aliquots of the assay mixture were placed on P81 paper and non-specific binding of [^32P]-γ-ATP removed by extensive washing in 180 mM phosphoric acid. Incorporation of ^32P into bound MBP substrate was measured by liquid scintillation spectroscopy (Beckman Instruments Inc, Schaumburg, Ill., USA).
# JNK1 = JNK1 immune complex kinase assay
# Procedure: as §2, §3, §4
# c-Jun = assay: Western blot of c-Jun protein and Ser-63 phosphorylated c-Jun
# Procedure: Immunoprecipitation and Western analysis. For immunochemical analyses, cells frozen at −20° C. were lysed in ice-cold lysis buffer, 25 mM β-glycerophosphate, pH 7.4, 25 mM Tris, pH 7.4, 10% (v/v) glycerol, 1.5 mM EGTA, 0.5 mM EDTA, 1% Triton X-100, 1 mM Na-orthovanadate, 1 mM Na-pyrophosphate, 10 μg/ml aprotinin, 10 μg/ml leupeptin, 1 μm benzamidine, 100 μg/ml PMSF. Insoluble material was removed by centrifugation at 14 000 g for 10 min, and the clarified protein lysates were divided equally for immunoprecipitation with antibodies against JNKI and MAPK using established techniques (Boulton et al., 1990). Lysates were incubated with Ab at 4° C. for 3 h, the agarose-Ab immunoprecipitates were washed twice in lysis buffer, once in lysis buffer containing 0.1% Triton X-100, and once in 1× kinase buffer, 25 mM β-glycerophosphate, pH 7.4, 15 mm MgCl2. For Western blot analyses, equal amounts of cellular protein were separated by SDS-PAGE, electroblotted to nitrocellulose, probed with specific Abs against c-Jun protein and c-Jun 0phosphorylated at Ser-63, followed by chemilumescence detection. Expression of Tam 67 in MDA-TR15-EGFR-CD533 cells infected with recombinant adenovirus was determined by Western analysis using a c-Jun Ab specific for the COOH-terminus.
# [1] = tested on: MDA-TR15-EGFR-CD533 cells; assay: TUNEL assay for apoptosis
# Procedure: TUNEL assay for apoptosis. Cells were placed at a density of 2×10^4 cells into dual well slides and allowed to adhere overnight in RPMI/5FCS. Cells were then exposed, prior to irradiation, for 48 h to Dox or control solute for induction of EGFR-CD533. PD98059 at a final concentration of 10 μM was added 2 h prior to irradiation at 2 Gy. Cells were infected with recombinant Ad-TAM67 for expression of Tam67 for 48 h prior to irradiation. […] Slides were stored at −20° C. until examination by fluorescence microscopy using a fluorescein filter.
# [2] = tested on: MDA-TR15-EGFR-CD533 cells; assay: Repeated radiation exposure (5 x 2 Gy) MTT cell growth assay
# Procedure: MDA-TR15-EGFR-CD533 cells were seeded in RPMI/5% FBS at 1000 or 2000 cells/well in 96-well tissue culture plates for control and radiation experiments, respectively. After cell attachment overnight, 50% of the cultures were exposed to Dox at 1 μg/ml. Within 24 h of Dox exposure, drug-exposed and control cultures were irradiated once-daily with 2 Gy for 5 consecutive days.
# Growth rate analysis. For irradiation and control conditions, 1000 and 500 cells per well of 24-well plates were seeded, respectively. Cells were maintained in RPMI/5FCS without media change throughout the period of the experiment. After 24 h of seeding, 50% of the plates were treated with 10 μM PD98059 for 2 h while negative controls were exposed to equivalent DMSO concentrations of 1 μl/ml in RPMI/5FCS. This was followed by 2 Gy daily radiation exposures for 5 consecutive days; control cells were sham irradiated. […] Growth rates were quantified relative to absorbance at 540 nm on day 1.
# EGFR-WT = EGFR-WT Tyr autophosphorylation, immunoprecipitation/Western blot; conditions: 2 ng/ml EGF, MDA-TR15-EGFR-CD533 cells without Dox
# Procedure: as §1
# [3] = MCF-TR5-EGFR-CD533 cells, 48 h Dox exposure
# [4] = MDA-TR15-EGFR-CD533 cells, 48 h Dox exposure
# [5] = parental MDA-TR15 cells, Dox 48 h
# [6] = MDA-TR15-EGFR-CD533 cells, basal activity before irradiation, after pretreatment
compound,measurement,setting,value
"C[C@H]1c2cccc(O)c2C(=O)C2=C(O)[C@]3(O)C(=O)C(C(N)=O)=C(O)[C@@H](N(C)C)[C@@H]3[C@@H](O)[C@@H]21 [Dox, doxycycline]",EGFR-CD533 induced,"EGFR-CD533 expression; 1.0 μg/ml Dox, at 24 h, 35S-Met incorporation, MDA-TR15-EGFR-CD533 cells",> 90%
same,EC50,"EGFR-CD533 expression; Homo sapiens, MDA-TR15-EGFR-CD533 cells, 48 h exposure, 0.01-1.0 μg/ml, read-out: Dox concentration giving half maximal response of EGFR-CD533 induction",0.1 µg/mL
same,increase in EGFR-CD533 mRNA levels,EGFR-CD533 expression; [3],5 fold
same,induction of the 110 kD EGFR-CD533 truncated receptor,EGFR-CD533 expression; [3],greater than 20 fold
same,increase in EGFR-CD533 mRNA levels,EGFR-CD533 expression; [4],greater than 30 fold
same,induction of EGFR-CD533 at the protein level,EGFR-CD533 expression; [4],greater than 50 fold
same,MAPK activity,MAPK; [5],16000±1600 c.p.m.
same,JNK1 activity at time=0,JNK1; [5],3500±300 c.p.m.
COc1cccc(-c2cc(=O)c3ccccc3o2)c1N [PD98059],inhibition of radiation-induced MAPK activation,"MAPK; 10 μm PD98059 pretreatment, 2 Gy, MDA-TR15-EGFR-CD533 cells",> 70%
same,MAPK activity at time=0,MAPK; [6],16900±575 c.p.m.
same,transient activation of JNK1 without irradiation,"JNK1; 10 μM PD98059, between 5 and 25 min, no radiation",1.35 (±0.02) fold
same,radiation-induced immediate JNK1 activation,"JNK1; 2 Gy, early time points (within 10 min), MDA-TR15-EGFR-CD533 cells",3.9 (±0.1) fold
same,JNK1 activity at time=0,JNK1; [6],3100±200 c.p.m.
same,c-Jun protein levels relative to untreated cells,c-Jun; 10 μM PD98059 2 h,more than twofold reduction
same,increase in c-Jun Ser-63 phosphorylation relative to c-Jun protein level,"c-Jun; 10 μM PD98059 pretreatment, 10 min after 2 Gy",41 fold
same,stimulation of c-Jun phosphorylation under MEK1/2 inhibition compared to radiation alone,"c-Jun; PD98059 + 2 Gy, sustained up to 60 min",fivefold greater
same,apoptosis rate after irradiation,[1]; TUNEL 24 h after single 2 Gy,6.3 (±0.1) %
same,basal apoptosis rate,"[1]; TUNEL, without irradiation",3.7 (±0.1) %
same,increase in basal apoptosis rate,"[1]; TUNEL, without irradiation, relative to control",~20%
same,lower cell numbers on day 7 relative to irradiated control cells,"[2]; 5 daily 2 Gy exposures, MTT, day 7 of growth period",5.0 (±0.03) fold
same,inhibition of cell growth / decrease in cell numbers without irradiation,"[2]; un-irradiated, day 7, MTT",25%
"EGF: epidermal growth factor, natural ligand of EGFR",activation of EGFR-WT Tyr phosphorylation,EGFR-WT,9.8 fold
